Results from patent publication US5760036A, “Aminediol protease inhibitors” (E. R. Squibb & Sons, Inc., priority 1995, dated 1998).

biological target: T1, HIV protease (Human immunodeficiency virus type 1 group M subtype B, UniProt P04585); assay: HIV Protease Assay; format: biochemical; conditions: 10 μM inhibitor, 4% DMSO, 450 μM substrate, pH 5.5, 30 minutes at 37° C., RP-HPLC
T1 construct: and purified protease
Experimental: An HIV protease standard assay was performed in a 60 μl reaction medium containing 50 mM sodium acetate, pH 5.5, 100 μg/ml bovine serum albumen,450 μM substrate (H2 N-Val-Ser-Gln-Asn-(β-naphthyl-alanine)-Pro-Val-Ile-OH), and purified protease. The reaction medium was incubated for 30 minutes at 37° C., quenched by the addition of 140 μl 5% H3 PO4, then analyzed by reverse phase HPLC using UV220 detection. In a typical control assay, 7% of the substrate was hydrolyzed. Aminediol inhibitors of the present invention, listed in the following Table 1, were then employed in the assay, for which purpose they were prepared as a […] solution in DMSO, then diluted to 30 μM with 50 mM sodium acetate/bovine serum albumen. This working stock was then diluted three-fold into the protease reaction medium, for a final concentration of 10 μM inhibitor and 4% DMSO.

| HIV Protease % Inhibition at 10 μM [%] | Compound |
| --- | --- |
| 89 | CC(C)(C)OC(=O)N[C@@H](Cc1ccccc1)[C@H](O)CNC[C@@H](O)[C@H](Cc1ccccc1)NC(=O)C(C)(O)C(F)(F)F (single isomer, unassigned; isomer b) [Compound 294, [1S-[1R*,2S*(2S*,3R*)]]-[2-Hydroxy-3-[2-hydroxy-1-oxo-2-(trifluoromethyl)propyl]amino]-4-phenylbutyl]amino]-1-(phenylmethyl)propyl]carbamic acid, 1,1-dimethylethylester (isomer B)] |

same assay, conditions: pH 5.5, 10 μM inhibitor, 4% DMSO, 450 μM substrate, pH 5.5, 30 minutes at 37° C., RP-HPLC; read-out: HIV Protease % Inhibition at 10 μM

| Compound | inhibition at 10 µM [%] |
| --- | --- |
| CC(C)(C)OC(=O)N[C@@H](Cc1ccccc1)[C@H](O)CNC[C@H](O)[C@@H](Cc1ccccc1)NC(=O)OC(C)(C)C [Compound 26ii, [1R-[1R*,2S*(2R*,3S*)]]-3-[[3-[[(1,1-Dimethylethoxy)carbonyl]amino]-2-hydroxy-4-phenylbutyl]amino]-2-hydroxy-1-(phenylmethyl)-propyl]carbamic acid, 1,1-dimethylethyl ester] | 41 |
| CC(C)(C)CS(=O)(=O)N[C@@H](Cc1ccccc1)[C@H](O)CNC[C@@H](O)[C@H](Cc1ccccc1)NC(=O)OC(C)(C)C [Compound 181, [1S-[1R*,2S*(2S*,3R*)]]-[3-[[3-[[(2,2-Dimethy]propyl)sulfonyl]amino]-2-hydroxy-4-phenylbutyl]amino]-2-hydroxy-1-(phenylmethyl)propyl]carbamic acid 1,1-dimethylethyl ester] | 46 |
| CC(C)(C)OC(=O)N[C@@H](Cc1ccccc1)[C@@H](O)CNCC(O)[C@@H](Cc1ccccc1)NC(=O)OC(C)(C)C (stereo partly drawn) [Compound 27, [1S-[1R*,2R*(3S*)]]-[3-[[3-[[(1,1-Dimethylethoxy)carbonyl]amino]-2-hydroxy-4-phenylbutyl]amino]-2-hydroxy-1-(phenylmethyl)propyl]-carbamic acid 1,1-dimethylethyl ester] | 19 |
| CC(C)(C)OC(=O)N1CCC[C@H]1[C@H](O)CNC[C@H](O)[C@@H]1CCCN1C(=O)OC(C)(C)C [Compound 8, [S-(R*,R*)]-2-[2-[[[S-(R*,S*)]-2-[1-[(1,1-Dimethylethoxy)carbonyl]-pyrrolidinyl]-2-hydroxyethyl]amino]-hydroxyethyl]-1-pyrrolidine-carboxylic acid, (1,1-dimethylethyl) ester] | 2 |
| CC(C)(C)OC(=O)N[C@@H](Cc1ccccc1)[C@H](O)CN[C@H](Cc1ccccc1)[C@H](O)CNC(=O)OCc1ccccc1 [Compound 189, [2R-[2R*,3R*(2R*,3S*)]]-[3-[[3-[[(1,1-Dimethylethoxy)carbonyl]amino]-2-hydroxy-4-phenylbutyl]amino]-2-hydroxy-4-phenylbutyl]-carbamic acid, phenylmethyl ester] | 23 |
| CC(C)(C)OC(=O)N[C@@H](Cc1ccccc1)[C@H](O)CNC[C@@H](O)[C@H](Cc1ccccc1)NC(=O)OCc1ncc[nH]1 [Compound 268, [R-(R*,S*)]-[Iminobis[2-hydroxy-1-(phenylmethyl)-3,1-propanediyl)]biscarbamic acid, (1H-imidazol-2-yl)-methyl 1,1-dimethylethyl ester] | 94 |
| CON=C(C(=O)N[C@@H](Cc1ccccc1)[C@H](O)CNC[C@@H](O)[C@H](Cc1ccccc1)NC(=O)OC(C)(C)C)C(C)(C)C [Compound 296, [1S-[1R*,2S*(2S*,3R*)]]-[2-Hydroxy-3-[[2-hydroxy-3-[[2-(methoxyimino)-3,3-dimethyl-1-oxobutyl]amino]-4-phenylbutyl]amino]-1-(phenylmethyl)propyl]carbamic acid, 1,1-dimethylethyl ester] | 37 |
| CN(C(=O)NC(C)(C)C)[C@@H](Cc1ccccc1)[C@H](O)CNC[C@@H](O)[C@H](Cc1ccccc1)NC(=O)OC(C)(C)C [Compound 136, [1S-[1R*,2S*(2S*,3R*)]]-[3-[[3-[[[(1,1-Dimethylethyl)amino]carbonyl]methylamino]-2-hydroxy-4-phenylbutyl]amino]-2-hydroxy-1-(phenylmethyl))propyl]carbamic acid, 1,1-dimethylethyl ester] | 73 |

Now from value to compound:

| inhibition at 10 µM [%] | Compound |
| --- | --- |
| 30 | CO[C@H](CNC[C@@H](O)[C@H](Cc1ccccc1)NC(=O)OC(C)(C)C)[C@H](Cc1ccccc1)NC(=O)OC(C)(C)C [Compound 142, [1S-[1R*,2S*(2S*,3R*)]]-[3-[[3-[[(1,1-Dimethylethoxy)carbonyl]amino]-2-hydroxy-4-phenylbutyl]amino]-2-methoxy-1-(phenylmethyl)propyl]carbamic acid 1,1-dimethylethyl ester] |
| 84 | CC(C)(C)OC(=O)N[C@@H](Cc1ccccc1)[C@H](O)CNC[C@@H](O)[C@H](Cc1ccccc1)NC(=O)C(N)C(F)(F)F (stereo partly drawn) [Compound 329, [1S-[1R*,2S*(2S*,3R*)]]-[3-[[3-[[(1-Amino-2,2,2-trifluoroethyl)carbonyl]amino]-2-hydroxy-4-phenylbutyl]amino]-2-hydroxy-1-(phenylmethyl)propyl]carbamic acid, 1,1-dimethylethyl ester] |
| 15 | CC(C)(C)CCN[C@@H](Cc1ccccc1)[C@H](O)CNC[C@@H](O)[C@H](Cc1ccccc1)NC(=O)OC(C)(C)C [Compound 127, [1S-[1R*,2S*(2S*,3R*)]]-[3-[[3-[(3,3-Dimethylbutyl)amino]-2-hydroxy-4-phenylbutyl]amino]-2-hydroxy-1-(phenylmethyl)propyl]carbamic acid, 1,1-dimethylethyl ester] |
| 10 | CC(C)[C@H](NC(=O)OCc1ccccc1)C(=O)N[C@@H](Cc1ccccc1)[C@@H](O)CNC[C@H](O)[C@H](Cc1ccccc1)NC(=O)[C@@H](NC(=O)OCc1ccccc1)C(C)C [Compound 119, [S-(1R*,2R*)]-N,N'-[Iminobisr[2-hydroxy-1-(phenylmethyl)-3,1-propanediyl]]bis[N^2-[phenylmethyloxy)carbonyl]-L-valinamidel] |
| 99 | COC(=O)N[C@H](C(=O)N[C@@H](Cc1ccccc1)[C@H](O)CNC[C@@H](O)[C@H](Cc1ccccc1)NC(=O)[C@](C)(O)C(C)(C)C)C(C)(C)C (relative stereo) [Compound 383, [1R*,2S*[2S*, 3R*(S*)]]-N-[2-Hydroxy-3-[[2-hydroxy-3-[(2-hydroxy-2,3,3-trimethyl-1-oxobutyl)amino]-4-phenylbutyl]amino]-1-(phenylmethyl)propyl]-N^2-(2-methoxycarbonyl)-3-methyl-L-valinamide] |
| 61 | CC(C)(C)OC(=O)N[C@@H](Cc1ccccc1)[C@H](O)CNC[C@@H](O)[C@H](Cc1ccccc1)N1CC(C)(C)OC1=O [Compound 140, [1S-[1R*,2S*(2S*,3R*)]]-[3-[[3-(5,5-Dimethyl-2-oxo-3-oxazolidinyl)-2-hydroxy-4-phenylbutyl]amino]-2-hydroxy-1-(phenylmethyl)-propyl]carbamic acid, 1,1-dimethylethyl ester] |
| 45 | CC(C)[C@H](N)C(=O)N[C@@H](Cc1ccccc1)[C@H](O)CNC[C@@H](O)[C@H](Cc1ccccc1)NC(=O)OC(C)(C)C [Compound 59, [S-[1R*,2S*(2S*,3R*)-N-[3 [[3-[[(1,1-Dimethylethoxy)carbonyl]amino]-2-hydroxy-4-phenylbutyl]amino]-2-hydroxy-1-(phenylmethyl)-propyl-L-valinamide] |
| 82 | CC(C)(C)OC(=O)N[C@@H](Cc1ccccc1)[C@H](O)CNC[C@@H](O)[C@H](Cc1ccccc1)NC(=O)C(=NO)C(C)(C)C [Compound 295, [1S-[1R*,2S*(2S*,3R*)]]-[2-Hydroxy-3-[[2-hydroxy-3-[[2-(hydroxyimino)-3,3-dimethyl-1-oxobutyl]amino]-4-phenylbutyl]amino]-1-(phenylmethyl)propyl]carbamic acid, 1,1-dimethylethyl ester] |
| 21 | CC(C)[C@H](N)C(=O)N[C@@H](Cc1ccccc1)[C@H](O)CNC[C@@H](O)[C@H](Cc1ccccc1)NC(=O)[C@@H](N)C(C)C [Compound 43, [S-(1S*,2R*)]-N,N'-[Iminobis[2-hydroxy-1-(phenylmethyl)-3,1-propanediyl]]bis-L-valinamide] |
| 54 | CC(C)(C)OC(=O)N[C@@H](Cc1ccccc1)[C@H](O)CNC[C@@H](O)[C@H](Cc1ccccc1)NC(=O)C1c2ccccc2CC1O (stereo partly drawn) [Compound 237, [1S-[1R*,2S*[2S*,3R*(trans)]]]-[3-[[3-[[(2,3-Dihydro-2-hydroxy-1H-inden-1-yl)carbonyl]amino]-2-hydroxy-4-phenylbutyl]amino]-2-hydroxy-1-(phenylmethyl)propyl]carbamic acid, 1,1-dimethylethyl ester] |
| 5 | CC(C)(C)OC(=O)N[C@@H](Cc1ccccc1)[C@H](O)CN[C@H](Cc1ccccc1)[C@@H](O)CNC(=O)OCc1ccccc1 [Compound 185, [2S-[2R*,3S*(2S*,3R*)]]-[3-[[3-[[(1,1-Dimethylethoxy)carbonyl]amino-2-hydroxy-4-phenylbutyl]amino-2-hydroxy-4-phenylbutyl]carbamnic acid, phenylmethyl ester] |
| 8 | CC(C)(C)OC(=O)N1CCC[C@H]1C(O)CNCC(O)[C@@H]1CCCN1C(=O)OC(C)(C)C (single isomer, unassigned) [Compound 7] |
| < 16 | CC(C)(C)OC(=O)NC[C@@H](O)[C@@H](Cc1ccccc1)NC[C@@H](O)[C@H](Cc1ccccc1)NC(=O)OC(C)(C)C [Compound 190, [2R-[2R*,3R*(2R*,3S*)]]-[3-[[3-[[(1,1-Dimethylethoxy)carbonyl]amino]-2-hydroxy-4-phenyl-butyl]amino]-2-hydroxy-4-phenylbutyl]carbamic acid, 1,1-dimethylethyl ester] |
